Like-named read-outs stand apart in the source and are kept apart here.

Data set [1] has as its system Molt-4 lymphoblastic leukemia cells. Briefly: CellTiter 96 MTS cytotoxicity assay, Molt-4 leukemia cells. The data set is classed as cell-based, human. Particulars: for IC50: Homo sapiens, 24 h, Molt-4 at 2.5×10^4/ml. How it is done: (§1) Measurement of reduction in the number of living cells was determined by, the CellTiter 96 Aqueous Non-Radioactive Cell Proliferation Assay (Promega, Madison Wis.). Upon completion of a given experiment, MTS (a tetrazolium compound) at 333 μg/ml+phenazine methosulfate (at 25 μM) was added to each well of the 96-well plate for 1 hour at 37° C. This allowed for development of a color reaction in which dehydrogenases reduce the MTS in metabolically active cells. Since the cells were not washed before the addition of MTS, there were no potentially loosely adherent or non-adherent cells that could have been problematic. Soluble MTS formazan product was measured at a wavelength of 490 nm using a CERES 900 HDI ELISA reader (Bio-Tek Instruments, Inc, Highland Park, Vt.), Optical density is directly proportional to the number of living cells in culture. Cytotoxicity (%) was calculated in the following way: [(OD of control cells−OD of drug-treated cells)/OD of control cells]×100.
Molt-4 lymphoblastic leukemia cells (at 1.5×10^4/well), 3LL lung carcinoma cells (at 4×10^3/well), B16 melanoma cells (at 4×10^3/well), or HCT116 colon carcinoma cells (at 4×10^3/well) were seeded in 96-well plates and methyl jasmonate (MJ) or MJDB at 0.5 mM were added for 1 day. Optical density representing viable cells was determined by the CellTiter 96 Aqueous Non-Radioactive Cell Proliferation Assay (described above). Cytotoxicity was calculated as the % of control untreated cultures, mean±SD. n=3.
(§2) The optical density that represented viable cells was determined by the CellTiter 96 Aqueous Non-Radioactive Cell Proliferation Assay (Promega, Madison, Wis.), as described above. Cytotoxicity was calculated as % of control untreated cultures, mean±SE. n=3.
Biological assays were performed with a 1:1 mixture of the aforementioned tetra bromo isomers. More specifically, Molt-4 leukemic cells (at 2.5×10^4/ml) were incubated for one day in 96-well plates in the presence of different concentrations of either MJ or MJTB. The optical density that represented viable cells was determined by the CellTiter 96 Aqueous Non-Radioactive Cell Proliferation Assay (Promega, Madison, Wis.) as described above. Cytotoxicity is calculated as % of control untreated cultures, mean±SE. n=3.
Molt-4 (leukemia) cells (at 2.5×10^4/ml), and normal peripheral blood lymphocytes (PBL, at 2×10^5/ml) were incubated in 96-well plates for one day in the presence of different concentrations of MJTB. PBL were pre-incubated with 0.8 μg/ml phytohaemagglutinin +5 ng/ml TPA for 48 hours, to induce entrance into the cell cycle. These cells proliferate and therefore are similar in that respect to cancer cells, making the comparison more valid. The optical density that represented viable cells was determined by the CellTiter 96 Aqueous Non-Radioactive Cell Proliferation Assay (Promega, Madison, Wis.), as described above.
Molt4 leukemic cells (at 1.5×10^4/ml) were incubated for 1 day in the presence of different concentrations of halogenated derivatives of MJ. Specifically, these derivatives were MJS72f5 (one of R6 and R7 is iodo and the other is methoxy), MJS99 (R6 and R7 are each fluoro) and NJ-63 (one of R6 and R7 is bromo and the other is hydroxyl). The optical density that represented viable cells was determined by the CellTiter 96 Aqueous Non-Radioactive Cell Proliferation Assay (Promega, Madison, Wis.), described above. […] Another derivative.
For orientation: Formazan colour is commonly taken as a measure of viable cells.

The next data set deals with lymphomas in mice. As to conditions: from U.S. Pat. No. 6,469,061; cited from earlier work.
For the next data set, the system named is B16 melanoma cells. Briefly: CellTiter 96 MTS cytotoxicity assay, B16 melanoma cells. The data set is classed as cell-based. On the procedure:
as §1
Molt-4 lymphoblastic leukemia cells (at 1.5×10^4/well), 3LL lung carcinoma cells (at 4×10^3/well), B16 melanoma cells (at 4×10^3/well), or HCT116 colon carcinoma cells (at 4×10^3/well) were seeded in 96-well plates and methyl jasmonate (MJ) or MJDB at 0.5 mM were added for 1 day. […] Cytotoxicity was calculated as the % of control untreated cultures, mean±SD. n=3. […]

Data set [2] deals with peripheral blood lymphocytes from chronic lymphocytic leukemia (CLL) patients. In words: CellTiter 96 MTS cytotoxicity assay, CLL patient lymphocytes. The data set is classed as cell-based, human. Particulars: 1 day, several concentrations, FIG. 1; P<0.05 versus healthy donors. On the procedure:
as §1
(§3) In order to test the toxicity of MJDB towards human leukemia cells, peripheral blood lymphocytes from chronic lymphocytic leukemia (CLL) patients were harvested. […] The optical density that represented viable cells was determined by the CellTiter 96 Aqueous Non-Radioactive Cell Proliferation Assay (Promega, Madison, Wis.); an assay in which viable cells produce a colored product, as described above. […]

For data set [3], the system named is peripheral blood lymphocytes from healthy donors. In words: CellTiter 96 MTS cytotoxicity assay, lymphocytes from healthy donors. The data set is classed as cell-based, human. As to conditions: 1 day, several concentrations, FIG. 1. On the procedure:
as §1, §3

The test system of another data set is 3LL lung carcinoma cells. Briefly: CellTiter 96 MTS cytotoxicity assay, 3LL lung carcinoma cells. The data set is classed as cell-based, mouse. Particulars: 0.5 mM, 1 day, FIG. 2, P<0.05. On the procedure: as §1
(§4) Molt-4 lymphoblastic leukemia cells (at 1.5×10^4/well), 3LL lung carcinoma cells (at 4×10^3/well), B16 melanoma cells (at 4×10^3/well), or HCT116 colon carcinoma cells (at 4×10^3/well) were seeded in 96-well plates and methyl jasmonate (MJ) or MJDB at 0.5 mM were added for 1 day. […] Cytotoxicity was calculated as the % of control untreated cultures, mean±SD. n=3.

In data set [4] the test system is HCT116 colon carcinoma cells. In words: CellTiter 96 MTS cytotoxicity assay, HCT116 colon carcinoma cells. The class given is cell-based, human. Particulars: 0.5 mM, 1 day, FIG. 2, P<0.05. On the procedure: as §1, §4
For data set [5], the system named is 29M4.1 B lymphoma cells expressing wild type p53. In words: CellTiter 96 MTS cytotoxicity assay, 29M4.1 B lymphoma clone with wild type p53. The data set is classed as cell-based. Particulars: 1 day, several concentrations, FIG. 3. On the procedure: as §1
(§5) A system of two B lymphoma clones originating from the same cell line (29M4.1) was used. These clones differed solely in the expression of wild type versus mutant p53. […] The optical density that represented viable cells was determined by the CellTiter 96 Aqueous Non-Radioactive Cell Proliferation Assay (Promega, Madison, Wis.).

The subject of data set [6] is 29M4.1 B lymphoma cells expressing mutant p53. In words: CellTiter 96 MTS cytotoxicity assay, 29M4.1 B lymphoma clone with mutant p53. The class given is cell-based. Particulars: 1 day, several concentrations, FIG. 3. How it is done: as §1, §5
Data set [7] has as its system ATP levels in Molt-4 leukemia cells. In words: ATP determination assay (CellTiter-Glo) in Molt-4 cells. Particulars: MJDB at 1 mM (MJ at 3 mM) for 10, 30 or 60 minutes at 37° C., FIG. 4. The class given is cell-based, human. How it is done: An ATP determination assay was used to assess the effect of MJDB on ATP levels in cancer cells. More specifically, Molt-4 cells (at 1×10^4/well) were seeded in 96-well opaque-walled plates and MJ at 3 mM or MJDB at 1 mM were added for 10, 30 or 60 minutes at 37° C. Untreated cells incubated in culture medium were used as control. ATT levels were determined by the CellTiter-Glo™ Luminescent Cell Viability Assay; an assay in which cells produce a lumineascence signal that is equivalent to the ATP concentration in the cell. ATP depletion is calculated as % of control untreated cultures, mean±SD. n=3.
(In general: Cellular ATP, detected with luciferase, serves as a proxy for viable cell number.)

Data set [8] has as its system D122 (lung carcinoma) cells. Briefly: CellTiter 96 MTS cytotoxicity assay, D122 lung carcinoma cells. The data set is classed as cell-based, human. Particulars: Mus musculus, 24 h; D122 at 5×10^3/ml, one day incubation, MTS readout. How it is done:
as §1, §2

In data set [9] the test system is B16MDR (melanoma exhibiting multidrug resistance) cells. Briefly: CellTiter 96 MTS cytotoxicity assay, B16MDR melanoma cells. The class given is cell-based, human. As to conditions: Mus musculus, 24 h; B16MDR at 2×10^3/ml, one day incubation, MTS readout; read-out: IC50 (cytotoxicity), B16 MDR. On the procedure:
as §1, §2

Data set [10] can be described thus: CellTiter 96 MTS cytotoxicity assay, stimulated normal PBL. The class given is cell-based. Particulars: PBL at 2×10^5/ml, pre-incubated with phytohaemagglutinin + TPA for 48 hours, one day with compound. On the procedure: as §1
(§6) Molt-4 (leukemia) cells (at 2.5×10^4/ml), and normal peripheral blood lymphocytes (PBL, at 2×10^5/ml) were incubated in 96-well plates for one day in the presence of different concentrations of MJTB. […] The optical density that represented viable cells was determined by the CellTiter 96 Aqueous Non-Radioactive Cell Proliferation Assay (Promega, Madison, Wis.), as described above.

Data set [11] relates to normal peripheral blood lymphocytes (PBL). Described as above. The class given is cell-based. As to conditions: PBL versus Molt-4. On the procedure: as §1, §6
Setting [12] is: one day, MJTB as 1:1 mixture of tetra bromo isomers (Example 6), read-out: IC50 (concentration exhibiting 50% cytotoxicity), Molt-4, MJTB versus MJ.

Regarding `CC/C=C\CC1C(=O)CCC1CC(=O)OC` (stereo not shown) [MJ, methyl jasmonate, reference compound], the IC50 in [1] (setting [12]) amounted to 500 µM. Besides, the “prevention of development of lymphomas in mice” value in the data set on lymphomas in mice is “effective in preventing development of lymphomas in mice”.
As for `CCC(Br)C(Br)CC1C(=O)CCC1CC(=O)OC` (stereo not shown) [MJDB, methyl jasmonate di-bromide], the “cytotoxic effect compared to methyl jasmonate, Molt-4” value in data set [1] (0.5 mM, 1 day, FIG. 2, P<0.05) is “highly superior in its cytotoxic effect”. Moreover, the “cytotoxic effect compared to methyl jasmonate, B16” value in the data set with B16 melanoma cells (0.5 mM, 1 day, FIG. 2, P<0.05) is “highly superior in its cytotoxic effect”. Besides, the “cytotoxicity towards lymphocytes from CLL patients” value in data set [2] was “highly and selectively cytotoxic”. Also, the “cytotoxicity towards lymphocytes from healthy donors” value in data set [3] is recorded as “cytotoxicity is minimal”. Besides, the “cytotoxic effect compared to methyl jasmonate, 3LL” value in the data set with 3LL lung carcinoma cells is given as “highly superior in its cytotoxic effect”. Also, the “cytotoxic effect compared to methyl jasmonate, HCT116” value in [4] is on record as “highly superior in its cytotoxic effect”. In data set [5], the “cytotoxicity towards B lymphoma cells expressing wild type p53” value is “equally cytotoxic”. For the same molecule, in [6], the “cytotoxicity towards B lymphoma cells expressing mutant p53” value is “equally cytotoxic”. In [7], the ATP depletion result is “rapid and strong ATP depletion”.
Take `CCC(Br)C(Br)C[C@@]1(Br)C(=O)[C@@H](Br)CC1CC(=O)OC` (stereo partly shown) [MJTB, methyl jasmonate tetra-bromide]: the IC50 in [1] (one day incubation, MTS readout (Example 5), read-out: IC50 (cytotoxicity), Molt-4) stood at 8 µM; in [1] (setting [12]) it was 8 µM; in [8] it was 50 µM; in the data set on B16 melanoma cells (24 h, B16 at 2×10^3/ml, one day incubation, MTS readout) it was 80 µM; in data set [9] it was 80 µM. In addition, the “IC50 of MJTB smaller than that of MJ (fold)” value in data set [1] (Molt-4 cells, one day) is on record as “about 60 times”. Further, the IC50 at 1 day in [10] is 250 µM. For the same molecule, the “IC50 for normal peripheral blood lymphocytes relative to leukemic cells” value in [11] was “larger than that for leukemic cells by more than an order of magnitude”.

Values taken from patent publication US7683211B2, “Jasmonate derivative compounds pharmaceutical compounds and methods of use thereof” (Ramot at Tel-Aviv University Ltd., priority 2003, dated 2010).
